This assay relates to Escherichia coli ATCC 25922. Briefly: Minimum inhibitory concentration (MIC), CLSI broth micro-dilution, E. coli. As to conditions: Escherichia coli. In kind it is cell-based. In outline:
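Antibacterial potency is measured as MIC by the CLSI broth dilution method. Bacteria at OD600 0.0005 in Tween-80-supplemented cation-adjusted Mueller Hinton broth face ten twofold compound dilutions for 22 h at 35° C.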
Background: Dilution methods test growth across graded concentrations, often in twofold steps.

Setting [1] is: ATCC25922, Table 6, cation adjusted Mueller Hinton Broth + 0.002% Tween-80, 35° C., 22 hours.
Where [2] appears, read: ATCC25922, 22 h, Table 6, cation adjusted Mueller Hinton Broth + 0.002% Tween-80, 35° C.

As usually defined, the MIC is the lowest concentration that inhibits growth of the organism. Regarding `Cc1nc(-c2ccc(C(C)(C)C)cc2)ncc1C(=O)N[C@@H](CNC(=O)CN)C(=O)N(C)[C@@H]1C(=O)N[C@@H](C)C(=O)N[C@H](C(=O)NCC#N)Cc2ccc(OCCN)c(c2)-c2cc1ccc2OCCN` (racemic) [Compound 491, rac-(8S,11S,14S)-3,18-bis(2-aminoethoxy)-N-(cyanomethyl)-11-methyl-14-[methyl-[rac-(2S)-3-[(2-aminoacetyl)amino]-2-[[2-(4-tert-butylphenyl)-4-methyl-pyrimidine-5-carbonyl]amino]propanoyl]amino]-10,13-dioxo-9,12-diazatricyclo[13.3.1.12,6]icosa-1(18),2(20),3,5,15(19),16-hexaene-8-carboxamide], the minimal inhibitory concentration (MIC) under setting [1] was 3.1 µM.

For the compound `Cc1nc(-c2ccc(C(C)(C)C)cc2)ncc1C(=O)N[C@@H](CCNCC(N)=O)C(=O)N(C)[C@@H]1C(=O)N[C@@H](C)C(=O)N[C@H](C(=O)NCC#N)Cc2ccc(OCCN)c(c2)-c2cc1ccc2OCCN` (racemic) [Compound 493, rac-(8S,11S,14S)-3,18-bis(2-aminoethoxy)-N-(cyanomethyl)-11-methyl-14-[methyl-[rac-(2S)-4-[(2-amino-2-oxo-ethyl)amino]-2-[[2-(4-tert-butylphenyl)-4-methyl-pyrimidine-5-carbonyl]amino]butanoyl]amino]-10,13-dioxo-9,12-diazatricyclo[13.3.1.12,6]icosa-1(18),2(20),3,5,15(19),16-hexaene-8-carboxamide], the MIC under setting [1] came out at 1 µM.

In the case of `Cc1nc(-c2ccc(C(C)(C)C)cc2)ncc1C(=O)N[C@@H](CCNC=O)C(=O)N(C)[C@@H]1C(=O)N[C@@H](C)C(=O)N[C@H](C(=O)NCC#N)Cc2ccc(OCCN)c(c2)-c2cc1ccc2OCCN` (racemic) [Compound 494, rac-(8S,11S,14S)-3,18-bis(2-aminoethoxy)-N-(cyanomethyl)-11-methyl-14-[methyl-[rac-(2S)-2-[[2-(4-tert-butylphenyl)-4-methyl-pyrimidine-5-carbonyl]amino]-4-formamido-butanoyl]amino]-10,13-dioxo-9,12-diazatricyclo[13.3.1.12,6]icosa-1(18),2(20),3,5,15(19),16-hexaene-8-carboxamide], under setting [1], the MIC is 1.1 µM. Still for that read-out and setting: to `Cc1nc(-c2ccc(OC3CCCCC3)cc2)nc(C)c1C(=O)N[C@@H](CCNC=O)C(=O)N(C)[C@@H]1C(=O)N[C@@H](C)C(=O)N[C@H](C(=O)NCC#N)Cc2ccc(OCCN)c(c2)-c2cc1ccc2OCCN` (racemic) [Compound 504, rac-(8S,11S,14S)-3,18-bis(2-aminoethoxy)-N-(cyanomethyl)-11-methyl-14-[methyl-[rac-(2S)-2-[[2-[4-(cyclohexoxy)phenyl]-4,6-dimethyl-pyrimidine-5-carbonyl]amino]-4-formamido-butanoyl]amino]-10,13-dioxo-9,12-diazatricyclo[13.3.1.12,6]icosa-1(18),2(20),3,5,15(19),16-hexaene-8-carboxamide] belongs 0.75 µM. Regarding `Cc1nc(-c2ccc(OC3CCCCC3)cc2)nc(C)c1C(=O)N[C@@H](CCN)C(=O)N[C@@H]1C(=O)N[C@@H](C)C(=O)N[C@H](C(=O)NCC#N)Cc2ccc(OCCN)c(c2)-c2cc1ccc2OCCN` (racemic) [Compound 519, rac-(8S,11S,14S)-3,18-bis(2-aminoethoxy)-N-(cyanomethyl)-11-methyl-10,13-dioxo-14-[[rac-(2S)-4-amino-2-[[2-[4-(cyclohexoxy)phenyl]-4,6-dimethyl-pyrimidine-5-carbonyl]amino]butanoyl]amino]-9,12-diazatricyclo[13.3.1.12,6]icosa-1(18),2(20),3,5,15(19),16-hexaene-8-carboxamide], the MIC under setting [2] is 0.13 µM. With `C[C@@H]1NC(=O)[C@@H](N(C)C(=O)[C@H](CCN)NC(=O)c2c(N)cc(-c3ccc(C(C)(C)C)cc3)nc2N)c2ccc(OCCN)c(c2)-c2cc(ccc2OCCN)C[C@@H](C(=O)NCC#N)NC1=O` (racemic) [Compound 520, rac-(8S,11S,14S)-3,18-bis(2-aminoethoxy)-N-(cyanomethyl)-11-methyl-14-[methyl-[rac-(2S)-4-amino-2-[[2,4-diamino-6-(4-tert-butylphenyl)pyridine-3-carbonyl]amino]butanoyl]amino]-10,13-dioxo-9,12-diazatricyclo[13.3.1.12,6]icosa-1(18),2(20),3,5,15(19),16-hexaene-8-carboxamide], under setting [2], the MIC turned out to be 1 µM.

On to `Cc1nc(-c2ccc(OC3CCCCC3)cc2)nc(C)c1C(=O)N[C@@H](CCN)C(=O)N(C)[C@@H]1C(=O)N[C@@H](C)C(=O)N[C@H](C(=O)NCC#N)Cc2ccc(OCCN)c(c2)-c2cc1ccc2O` (racemic) [Compound 522, rac-(8S,11S,14S)-3-(2-aminoethoxy)-N-(cyanomethyl)-18-hydroxy-11-methyl-14-[methyl-[rac-(2S)-4-amino-2-[[2-[4-(cyclohexoxy)phenyl]-4,6-dimethyl-pyrimidine-5-carbonyl]amino]butanoyl]amino]-10,13-dioxo-9,12-diazatricyclo[13.3.1.12,6]icosa-1(18),2(20),3,5,15(19),16-hexaene-8-carboxamide], for which the minimum inhibitory concentration (MIC) under setting [2] was 0.13 µM. The same measure, in the same setting: to `Cc1nc(N2CCC(OCCC(C)(C)C)CC2)nc(C)c1C(=O)N[C@@H](CCN)C(=O)N(C)[C@@H]1C(=O)N[C@@H](C)C(=O)N[C@H](C(=O)NCC#N)Cc2ccc(OCCN)c(c2)-c2cc1ccc2OCCN` (racemic) [Compound 527, rac-(8S,11S,14S)-3,18-bis(2-aminoethoxy)-N-(cyanomethyl)-11-methyl-14-[methyl-[rac-(2S)-4-amino-2-[[2-[4-(3,3-dimethylbutoxy)-1-piperidyl]-4,6-dimethyl-pyrimidine-5-carbonyl]amino]butanoyl]amino]-10,13-dioxo-9,12-diazatricyclo[13.3.1.12,6]icosa-1(18),2(20),3,5,15(19),16-hexaene-8-carboxamide] belongs 0.38 µM; to `Cc1nc(-c2ccc(OCCC(C)(C)C)cc2)nc(C)c1C(=O)N[C@@H](CCN)C(=O)N(C)[C@@H]1C(=O)N[C@@H](C)C(=O)N[C@H](C(=O)NCC#N)Cc2ccc(OCCN)c(c2)-c2cc1ccc2O` (racemic) [Compound 528, rac-(8S,11S,14S)-3-(2-aminoethoxy)-N-(cyanomethyl)-18-hydroxy-11-methyl-14-[methyl-[rac-(2S)-4-amino-2-[[2-[4-(3,3-dimethylbutoxy)phenyl]-4,6-dimethyl-pyrimidine-5-carbonyl]amino]butanoyl]amino]-10,13-dioxo-9,12-diazatricyclo[13.3.1.12,6]icosa-1(18),2(20),3,5,15(19),16-hexaene-8-carboxamide], 0.063 µM. Turning to `CCCCc1ccc(-c2cc(N)c(C(=O)N[C@@H](CCN)C(=O)N(C)[C@@H]3C(=O)N[C@@H](C)C(=O)N[C@H](C(=O)NCC#N)Cc4ccc(OCCN)c(c4)-c4cc3ccc4OCCN)c(C)n2)nc1` (racemic) [Compound 529, rac-(8S,11S,14S)-3,18-bis(2-aminoethoxy)-N-(cyanomethyl)-11-methyl-14-[methyl-[rac-(2S)-4-amino-2-[[4-amino-6-(5-butyl-2-pyridyl)-2-methyl-pyridine-3-carbonyl]amino]butanoyl]amino]-10,13-dioxo-9,12-diazatricyclo[13.3.1.12,6]icosa-1(18),2(20),3,5,15(19),16-hexaene-8-carboxamide], the minimal inhibitory concentration (MIC) under setting [2] came out at 4 µM.

Consider `Cc1nc(-c2ccc(OC3CCCCCC3)cc2)nc(N)c1C(=O)N[C@@H](CCN)C(=O)N(C)[C@@H]1C(=O)N[C@@H](C)C(=O)N[C@H](C(=O)NCC#N)Cc2ccc(OCCN)c(c2)-c2cc1ccc2OCCN` (racemic) [Compound 532, rac-(8S,11S,14S)-3,18-bis(2-aminoethoxy)-N-(cyanomethyl)-11-methyl-14-[methyl-[rac-(2S)-4-amino-2-[[4-amino-2-[4-(cycloheptoxy)phenyl]-6-methyl-pyrimidine-5-carbonyl]amino]butanoyl]amino]-10,13-dioxo-9,12-diazatricyclo[13.3.1.12,6]icosa-1(18),2(20),3,5,15(19),16-hexaene-8-carboxamide], for which, under setting [2], the minimum inhibitory concentration (MIC) worked out at 0.063 µM.

In the case of `CC(=O)Nc1cc(C(=O)N[C@@H](CCN)C(=O)N(C)[C@@H]2C(=O)N[C@@H](C)C(=O)N[C@H](C(=O)NCC#N)Cc3ccc(OCCN)c(c3)-c3cc2ccc3OCCN)c(C)nc1-c1ccc(C(C)(C)C)cc1` (racemic) [Compound 533, rac-(8S,11S,14S)-3,18-bis(2-aminoethoxy)-N-(cyanomethyl)-11-methyl-14-[methyl-[rac-(2S)-2-[[5-acetamido-6-(4-tert-butylphenyl)-2-methyl-pyridine-3-carbonyl]amino]-4-amino-butanoyl]amino]-10,13-dioxo-9,12-diazatricyclo[13.3.1.12,6]icosa-1(18),2(20),3,5,15(19),16-hexaene-8-carboxamide], the minimum inhibitory concentration (MIC) under setting [2] was determined as 1.5 µM. `Cc1nc(-c2ccc(OCCC(C)(C)C)cn2)nc(N)c1C(=O)N[C@@H](CCN)C(=O)N(C)[C@@H]1C(=O)N[C@@H](C)C(=O)N[C@H](C(=O)NCC#N)Cc2ccc(OCCN)c(c2)-c2cc1ccc2OCCN` (racemic) [Compound 534, rac-(8S,11S,14S)-3,18-bis(2-aminoethoxy)-N-(cyanomethyl)-11-methyl-14-[methyl-[rac-(2S)-4-amino-2-[[4-amino-2-[5-(3,3-dimethylbutoxy)-2-pyridyl]-6-methyl-pyrimidine-5-carbonyl]amino]butanoyl]amino]-10,13-dioxo-9,12-diazatricyclo[13.3.1.12,6]icosa-1(18),2(20),3,5,15(19),16-hexaene-8-carboxamide]: the MIC under setting [2] amounted to 0.5 µM.

Values taken from patent US20260274892A1, “MACROCYCLIC BROAD SPECTRUM ANTIBIOTICS” (RQx Pharmaceuticals, Inc., priority 2017, published 2026).
